Peptide text beside a SMILES is read from it. * marks the point of attachment. Cholyl = C[C@H](CCC(=O)*)[C@H]1CC[C@H]2[C@@H]3[C@H](O)C[C@@H]4C[C@H](O)CC[C@]4(C)[C@H]3C[C@H](O)[C@]12C
Key:
EL4 lymphoma [1] = test: EL4 tumor model in vivo; parameters: species or system C57BL/6 mice; conditions: for survival at day 40 / tumor growth: alone
From the text: FIGS. 4A to 4F show the antitumoral effect of CA-SV40 on EL4 lymphoma in vivo. […] EL4 tumors without any treatment (i.e., PBS) are shown in black, whereas anti-PD-1 treatment alone is in orange and anti-CTLA-4 treatment alone is in purple. […]
Female C57BL/6 mice (n=10/group) received a SC injection of 5×10^5 EL4 cells at Day 0. Five days later (appearance of palpable tumors˜40-60 mm^3), mice were SC-injected with PBS, CA-SV40, anti-PD-1, or anti-CTLA4, alone or in combination.
The apoptosis observations obtained in vitro prompted us to explore whether CA-SV40 administration to mice with pre-established tumors can trigger a therapeutic effect. First, CA-SV40 was delivered alone using three different doses (47 μM, 95 μM, and 190 μM) every 48 h following the appearance of palpable tumors (EL4) (FIG. 4A) for a total of 5 injections. […] To further improve this response, we next combined the highest tested CA-SV40 dose (delivered daily instead of every 48 h) with the immune-checkpoint inhibitors (ICIs) anti-PD-1 or anti-CTLA4 (FIG. 4D). […]

EL4 lymphoma [2] = test: PI / Annexin-V co-staining time course; assay type: cell-based
Experimental: (§1) Percentages of double-positive stained cells is shown, which represents late apoptotic cells.
(§2) To further uncover the mechanism of cell death, we next investigated whether CA-SV40-triggered apoptosis is strictly occurring in the absence of necrosis. To do so, a co-staining experiment was conducted using propidium iodine (PI) and Annexin-V at different time points. […] Since a large number of anti-cancer molecules can trigger cell death via release or de novo production of reactive oxygen species (ROS), we next stained the EL4 lymphoma cells treated with CA-SV40 at the IC50 dose with MitoSOX™. […] This observation led us to test whether treatment with MitoTempo™ (blocking mitochondria-specific ROS) or N-acetylcysteine (NAC—building block for GSH) rescue from CA-SV40-triggered cell death.

EL4 cells = test: Cytochrome C cargo release cell death assay; assay type: cell-based
Experimental: FIGS. 3A and 3B show the ability of CA-SV40 to promote cargo release in the cytoplasm of target cells.
Cytochrome C is a protein that is normally entrapped in the mitochondria but can be released upon intrinsic signaling known to trigger apoptosis. An experiment was designed where recombinant cytochrome C was added to EL4 cells either alone or in combination with CA-SV40 (47 μM) (FIG. 3A). […] In addition, it may explain the increase in intracellular ROS levels as it can damage endosomes/vesicles responsible for intracellular ROS transport.

macrophages = test: Annexin V apoptosis assessment on normal cells; assay type: cell-based; conditions: 190 μM
[3] = tested on: bone marrow-derived dendritic cells; test: Annexin V apoptosis assessment on normal cells; assay type: cell-based, mouse; conditions: 190 μM
Experimental: Mouse bone marrow derived DCs (BMDCs) were generated by flushing the whole marrow from mouse femurs using RPMI™ 1640 supplemented with 10% fetal bovine serum (FBS), 50 U/mL Penicillin-Streptomycin, 2 mM L-glutamine, 10 mM HEPES, 1% MEM Non-essential Amino Acids, 1 mM Sodium Pyruvate, 0.5 mM β-mercaptoethanol. Following red blood cell lysis, cells were then cultured in media supplemented with 50 ng/mL murine recombinant GM-CSF. The media was changed on days 2, 4, 6 and 8. On day 9, the media was replaced to include recombinant murine GM-CSF and LPS from Escherichia coli O111 (1 ng/mL) to stimulate DC maturation. Mature DCs were assessed by flow cytometry for their surface expression of CD3, CD19, NK1.1, CD11c, CD80, CD86, and I-A^b.

4T1 breast cancer cells = test: Annexin V apoptosis assessment by flow cytometry; assay type: cell-based; conditions: 4T-1; 190 μM
mesenchymal stem cells = test: Annexin V apoptosis assessment on normal cells; assay type: cell-based; conditions: 190 μM
EL4 lymphoma cells [4] = test: MitoSOX staining for ROS production; assay type: cell-based; conditions: CA-SV40 at the IC50 dose, up to 8 h
Experimental: as §1, §2

EL4 lymphoma cells [5] = test: Annexin V apoptosis assessment by flow cytometry; assay type: cell-based; conditions: 190 μM
Experimental: Annexin-V staining percentage after treatment with different Cholic acid-NLS conjugates (190 μM) is shown relative to live EL4 lymphoma cells (i.e., PBS treated cancer cells) by flow cytometry.

[6] = tested on: CT-26 colon carcinoma cells; test: Annexin V apoptosis assessment by flow cytometry; assay type: cell-based; conditions: 190 μM
EL4 lymphoma cells [7] = test: Rescue from CA-SV40-triggered apoptosis by ROS blockers; assay type: cell-based
Experimental: as §1, §2

EL4 T-cell lymphoma = test: Cell death (kill) curve analysis by flow cytometry; conditions: alone, at any of the concentrations tested
[8] = highest tested dose (190 μM), every 48 h, 5 injections

CSCC[C@H](NC(=O)[C@H](CS)NC(=O)CC[C@@H](C)[C@H]1CC[C@H]2[C@@H]3[C@H](O)C[C@@H]4C[C@H](O)CC[C@]4(C)[C@H]3C[C@H](O)[C@]12C)C(=O)NCC(=O)N[C@@H](CCCNC(=N)N)C(=O)N[C@H](C(=O)N[C@@H](CCCNC(=N)N)C(=O)N[C@H](C(=O)N[C@@H](CCCCN)C(=O)N[C@H](C(=O)N[C@H](C(=O)N[C@@H](CCCCN)C(=O)N[C@@H](CCCCN)C(=O)N[C@@H](C)C(=O)N[C@@H](C)C(=O)NCC(=O)NCC(=O)O)C(C)C)[C@@H](C)O)[C@@H](C)O)C(C)C [CA-NLS1 RPS17] (Cholyl-CMGRVRTKTVKKAAGG-OH; N-terminus and C-terminus assumed)
survival at day 40 (EL4 lymphoma [1]; [8]): 20% | tumor growth (EL4 lymphoma [1]; [8]): significantly delayed tumor growth

CC[C@H](C)[C@H](NC(=O)[C@H](CCCNC(=N)N)NC(=O)[C@H](CCCCN)NC(=O)[C@H](CCSC)NC(=O)[C@H](CC(C)C)NC(=O)[C@H](Cc1c[nH]cn1)NC(=O)[C@@H](NC(=O)[C@@H](NC(=O)[C@H](Cc1ccc(O)cc1)NC(=O)CNC(=O)[C@H](C)NC(=O)[C@@H](NC(=O)[C@H](CCCCN)NC(=O)[C@H](CC(N)=O)NC(=O)[C@H](CCCNC(=N)N)NC(=O)[C@H](CC(C)C)NC(=O)[C@H](CCCCN)NC(=O)[C@H](CCCCN)NC(=O)[C@H](CO)NC(=O)[C@H](CS)NC(=O)CC[C@@H](C)[C@H]1CC[C@H]2[C@@H]3[C@H](O)C[C@@H]4C[C@H](O)CC[C@]4(C)[C@H]3C[C@H](O)[C@]12C)[C@@H](C)CC)C(C)C)[C@@H](C)O)C(=O)O [CA-NLS3 RPS17] (Cholyl-CSKKLRNKIAGYVTHLMKRI-OH; N-terminus and C-terminus assumed)
survival at day 40 (EL4 lymphoma [1]; [8]): 20% | tumor growth (EL4 lymphoma [1]; [8]): significantly delayed tumor growth

CC(C)[C@H](NC(=O)[C@H](CCCCN)NC(=O)[C@H](CCCNC(=N)N)NC(=O)[C@H](CCCCN)NC(=O)[C@H](CCCCN)NC(=O)[C@H](CCCCN)NC(=O)[C@@H]1CCCN1C(=O)CNC(=O)[C@H](Cc1ccc(O)cc1)NC(=O)CNC(=O)[C@H](CS)NC(=O)CC[C@@H](C)[C@H]1CC[C@H]2[C@@H]3[C@H](O)C[C@@H]4C[C@H](O)CC[C@]4(C)[C@H]3C[C@H](O)[C@]12C)C(=O)NCC(=O)NCC(=O)O [CA-SV40] (Cholyl-CGYGPKKKRKVGG-OH; N-terminus and C-terminus assumed)
time at which apoptosis started occurring post-treatment (EL4 lymphoma [2]; PI/Annexin-V): 1 h | time to complete death (EL4 lymphoma [2]; PI/Annexin-V): 8 h | necrotic cells (PI+/Annexin V−) (EL4 lymphoma [2]; time course): no necrotic cells | increase in cell death (EL4 cells; CA-SV40 47 μM combined with cytochrome C): three-fold | cell death (EL4 cells; CA-SV40 47 μM in combination with cytochrome C): 61% | cell death (EL4 cells; before combination (weak CA-SV40 dose, 47 μM)): 19% | apoptosis in normal cells (macrophages): induce apoptosis | apoptosis in normal cells [3]: induce apoptosis | cell death through apoptosis (Annexin V staining) (4T1 breast cancer cells): triggers cell death through apoptosis | apoptosis in normal cells (mesenchymal stem cells): induce apoptosis | ROS production (MitoSOX signal) (EL4 lymphoma cells [4]): time-dependent ROS production | cell death through apoptosis (Annexin V staining) (EL4 lymphoma cells [5]): triggers cell death through apoptosis | cytotoxicity compared with CA-GWG-SV40 (EL4 lymphoma cells [5]): notably higher | antitumoral response (EL4 lymphoma [1]; highest dose daily, combined with anti-PD-1 or anti-CTLA4, vs CA-SV40 alone): significantly enhanced the antitumoral response | tumor growth (EL4 lymphoma [1]; highest dose delivered daily): significant delays in tumor growth | tumor growth (EL4 lymphoma [1]; [8]): significantly delayed tumor growth | cell death through apoptosis (Annexin V staining) [6]: triggers cell death through apoptosis

CC(=O)N[C@@H](CS)C(=O)O [NAC, N-acetylcysteine]
rescue from CA-SV40-triggered apoptosis (EL4 lymphoma cells [7]; CA-SV40 at IC50 dose): completely blocked apoptosis | rescue from CA-SV40-triggered apoptosis (EL4 lymphoma cells [7]; CA-SV40 at higher doses (IC100)): incomplete but significant blockade

SV40 NLS: NLS from SV-40 large T-antigen (e.g., PKKKRKV), unconjugated negative control
cytotoxic activity (EL4 T-cell lymphoma): did not exhibit any cytotoxic activity

cytochrome C: recombinant cytochrome C protein, cargo added to EL4 cells [reference compound]
cell death (EL4 cells; recombinant cytochrome C alone): did not trigger cell death
